Values joined by “and” are separate entries in the source; they are usually repeats but may differ in a detail not shown here. Identical values can stand only once. Like-named read-outs stand apart in the source and are kept apart here. Marks after values point to notes of the source that are not given here.
Experiments:
V. harveyi BB7XM [1] = test: Vibrio harveyi mutagenicity assay, BB7XM strain; conditions: 40 ng/ml; for Mutagenicity BB7XM M.I. (mutagenic index): positive assay when M.I. ≥ 2
Procedure: (§1) Two V. harveyi strains were used in the experiments: wild-type BB7 and genetically modified BB7XM (the UV-hypersensitive strain bearing plasmid pAB91273), which were described previously by Czyż et al. ([2000]).
(§2) Mutagenicity assay was performed as described previously (Czyż et al. [2000]). All experiments were carried out in triplicate and the results were expressed as mutagenic index (M.I. = the number of revertant colonies induced in the tested sample/the number of spontaneous revertants in the negative control) (Gulluce et al. [2010]).

mice [2] = test: Spontaneous locomotor activity (photoresistor actometers); type: in vivo, mouse; conditions: dose 30 mg/kg i.p.; 30-min session
Procedure: (§3) Male CD-1 mice weighing 18–24 g were used in the in vivo experiment. The animals were kept at room temperature of 20 ± 2 °C under standard conditions (12:12 h light-dark cycle, standard pellet diet, tap water). All the experiments were performed between 8 a.m. and 3 p.m. For the experiments, the animals were selected in a random way and sacrificed by cervical dislocation immediately after the assay. The experimental protocol was approved by the Local Ethics Commission for Animal Experiments of the Jagiellonian University in Cracow, and all experiences were conducted in accordance with the 1996 NIH Guide for the Care and Use of Laboratory Animals.
(§4) The tested compounds 12 (N-[{4-(3,4-dichlorophenyl)-piperazin-1-yl}-methyl]-3-methylpyrrolidine-2,5-dione), 13 (N-[{4-(3-trifluoromethylphenyl)-piperazin-1-yl}-methyl]-3-methylpyrrolidine-2,5-dione), 15 (N-[{4-(3-methylphenyl)-piperazin-1-yl}-methyl]-3-methylpyrrolidine-2,5-dione), 23 (N-[{4-(3,4-dichlorophenyl)-piperazin-1-yl}-methyl]-pyrrolidine-2,5-dione), and 24 (N-[{4-(3-trifluoromethylphenyl)-piperazin-1-yl}-methyl]-pyrrolidine-2,5-dione) were synthesized at the Department of Medicinal Chemistry, Jagiellonian University Medical College in Cracow (Scheme 1). The synthesis of the investigated compounds was described earlier (Rybka et al. [2014]). The investigated compounds were suspended in a 0.5 % aqueous solution of methylcellulose (Loba Chemie, Germany). Lacosamide (Vimpat, UCB Pharma, Belgium), pilocarpine (Sigma-Aldrich, Germany), scopolamine butylbromide (Sigma-Aldrich, Germany), and formaldehyde (POCh, Poland) were dissolved in distilled water. Agents were administered intraperitoneally (i.p.) at a volume of 0.1 ml/10 g. Control animals were administered an equivalent volume of vehicle (0.5 % aqueous solution of methylcellulose) via the same route as the test compounds.
Locomotor activity was measured with photoresistor actometers (Ugo Basile, Italy) connected to a counter for the recording of light-beam interruptions. Mice were individually placed in plastic cages for 30 min habituation period, and then the number of light-beam crossings was counted for a 30-min session. The cages were cleaned up with 70 % ethanol after each mouse.

mice [3] = test system: mice; set-up: method as in Rybka et al. [2014]; conditions: ref Rybka et al. [2014], cited from earlier work; for motor coordination in the rotarod test (in words): up to a dose of 500 mg/kg
mice [4] = test: Hot plate test; type: in vivo, mouse; conditions: dose 30 mg/kg i.p.
Procedure: as §3, §4
In the hot plate test, the mice were i.p. pretreated either with the test compound or vehicle before placing the animal on the hot plate apparatus (Panlab/Harvard Apparatus, Spain). This apparatus has an electrically heated surface and is supplied with a temperature controller that maintains the temperature at 55–56 °C. The time to the first reaction (licking or jumping) of mice to a nociceptive stimulus was recorded. The cutoff time was established to 60 s to avoid paw tissue damage (Sałat et al. [2014]).

mice [5] = test: Electroconvulsive threshold test (MEST test); type: in vivo, mouse; conditions: 4 h before the test; for CS50 (mA) (CI): value with 95 % confidence interval
mice [6] = test: Pilocarpine-induced seizure test; type: in vivo, mouse; conditions: for Latency to status epilepticus (s) ± SEM: 4 h before pilocarpine 400 mg/kg; for Anticonvulsant effect (%) (prolongation of latency time to seizures vs vehicle): 4 h before pilocarpine, 100 mg/kg
Procedure: as §3, §4
The experimental procedure was originally described by Turski et al. ([1987]). Seizures were induced in mice by i.p. injection of pilocarpine at a dose of 400 mg/kg. Forty-five minutes before pilocarpine, animals were also pretreated with scopolamine butylbromide (1 mg/kg, i.p.) to reduce peripheral autonomic side effects and masticatory and stereotyped movements (Kowalczyk et al. [2014]). Direct observation was performed for 60 min to monitor the latency time to the onset of the limbic seizures, characterized by a subsequent development of behavioral symptoms, such as tremor, head bobbing, and myoclonic movements of the forelimbs progressing to recurrent myoclonic convulsions with rearing, salivation, falling, and status epilepticus (Łuszczki et al. [2008]; Turski [2000]).

V. harveyi BB7 [7] = test: Vibrio harveyi antimutagenicity assay (vs NQNO), BB7 strain; type: cell-based; conditions: for inhibition of NQNO-induced mutagenicity in BB7 strain (in words): NQNO 40 ng/ml; for Antimutagenicity BB7 number of revertants Mean ± SD: test compound plus NQNO 40 ng/ml (NQNO line: mutagen only); for Antimutagenicity BB7 Inhib. (%) of mutagenicity: test compound plus NQNO 40 ng/ml, 25–40 % moderate, 40 % or more strong
Procedure: as §1
(§5) Antimutagenicity assay was performed according to previously described procedures (Czyż et al. [2002]; Pękala et al. [2013]). […] This was calculated as follows: Inhibition (%) = 100 − [(R1/R2) × 100], where R1 is the number of revertants per plate induced by test compound plus mutagen and R2 is the number of revertants in the plate containing only the mutagen (Słoczyńska et al. [2010]). No antimutagenic effect was considered when the inhibition was less than 25 %; a moderate effect for an inhibition value between 25 and 40 % and a strong antimutagenicity were recorded for inhibition higher than 40 % (Gulluce et al. [2010]).

[8] = test system: L-type calcium channel (dihydropyridine site); test: L-type Ca channel (dihydropyridine site) [3H]nitrendipine binding assay; conditions: rat cerebral cortex
mice [9] = test: Formalin hind paw test; type: in vivo, mouse; conditions: dose 30 mg/kg i.p.; for antinociceptive effect (reduction of licking response), second (late) phase: 15–30 min after 5 % formalin
Procedure: as §3, §4
Antinociceptive activity in the formalin hind paw test was examined according to Laughlin et al. ([2002]). Twenty microliters of a 5 % formalin solution was injected intraplantarly (i.pl.) into the right hind paw of the mouse. […] Time (in seconds) spent on licking or biting the injected hind paw in selected intervals, 0–5 and 15–30 min, was measured in each experimental group and was an indicator of nociceptive behavior. In mice, intraplantarly injection of diluted formalin produces a biphasic nocifensive behavioral response (i.e., licking or biting the injected hind paw). The acute nociceptive phase lasts for the first 5 min, whereas the second inflammatory phase occurs between 15 and 30 min after formalin injection.

V. harveyi BB7XM [10] = test: Vibrio harveyi antimutagenicity assay (vs NQNO), BB7XM strain; type: cell-based; conditions: for Antimutagenicity BB7XM number of revertants Mean ± SD: test compound plus NQNO 40 ng/ml (NQNO line: mutagen only); for Antimutagenicity BB7XM Inhib. (%) of mutagenicity: test compound plus NQNO 40 ng/ml, 25–40 % moderate, 40 % or more strong
Procedure: as §1, §5

mice [11] = conditions: ref Rybka et al. [2014]; cited from earlier work
V. harveyi BB7 [12] = test: Vibrio harveyi mutagenicity assay, BB7 strain; conditions: 40 ng/ml; for Mutagenicity BB7 M.I. (mutagenic index): positive assay when M.I. ≥ 2
Procedure: as §1, §2

[13] = test system: L-type calcium channel (dihydropyridine site); set-up: method as in Kamiński et al. [2015b]; conditions: 100 μM; [3H]nitrendipine; rat cerebral cortex; ref Kamiński et al. [2015b]; cited from earlier work

SMILES	Mutagenicity BB7XM number of revertants Mean ± SD (V. harveyi BB7XM [1])	Mutagenicity BB7XM M.I. (mutagenic index) (V. harveyi BB7XM [1])	influence on locomotor activity (number of crossings, in words) (mice [2])	motor coordination in the rotarod test (in words) (mice [3])	increase of electroconvulsive threshold (ECT) vs vehicle (mice [5]; dose 10 mg/kg i.p.)	CS50 (mA) (CI) (mice [5]; dose 10 mg/kg i.p.)	increase of electroconvulsive threshold (ECT) vs vehicle (mice [5]; dose 30 mg/kg i.p.)	CS50 (mA) (CI) (mice [5]; dose 30 mg/kg i.p.)	Latency to status epilepticus (s) ± SEM (mice [6]; dose 100 mg/kg i.p.)	Anticonvulsant effect (%) (prolongation of latency time to seizures vs vehicle) (mice [6]; dose 100 mg/kg i.p.)	inhibition of NQNO-induced mutagenicity in BB7 strain (in words) (V. harveyi BB7 [7])	Antimutagenicity BB7 number of revertants Mean ± SD (V. harveyi BB7 [7])	Antimutagenicity BB7 Inhib. (%) of mutagenicity (V. harveyi BB7 [7])	% inhibition of control specific binding ([8]; 10 μM)	% inhibition of control specific binding ([8]; 100 μM)	antinociceptive effect (reduction of licking response), second (late) phase (mice [9])	Antimutagenicity BB7XM number of revertants Mean ± SD (V. harveyi BB7XM [10])	Antimutagenicity BB7XM Inhib. (%) of mutagenicity (V. harveyi BB7XM [10])	ED50 in the s.c.PTZ test (mice [11])	Mutagenicity BB7 number of revertants Mean ± SD (V. harveyi BB7 [12])	other results
CC1CC(=O)N(CN2CCN(c3ccc(Cl)c(Cl)c3)CC2)C1=O (centres unmarked) [Compound 12, N-[{4-(3,4-dichlorophenyl)-piperazin-1-yl}-methyl]-3-methylpyrrolidine-2,5-dione]	14 ± 6	1.2	did not significantly influence on locomotor activity	did not impair the motor coordination	51%	7.94 (6.57–9.57)*** mA	118%	14.27 (8.21–24.80)** mA	468.8 ± 39.60 s	37% and 36.8%	moderate inhibitors	28 ± 4	(26) %	20.2%	59.4%	74%	23 ± 5	(5) %	134.0 mg/kg	25 ± 4	TD50 in rotarod test (mice [3]; mice): > 500 mg/kg; prolongation of latency time to pain reaction vs vehicle (mice [4]): 44%; latency time to pain reaction (mice [4]; mean ± SEM, vehicle 27.51 ± 1.36 s, cutoff 60 s): 39.73 ± 3.20 s; reduction of the duration of the licking response, first (neurogenic) phase (mice [9]; 0–5 min after 5 % formalin): 39%; Mutagenicity BB7 M.I. (mutagenic index) (V. harveyi BB7 [12]): 1.5
O=C1CCC(=O)N1CN1CCN(c2ccc(Cl)c(Cl)c2)CC1 [Compound 23, N-[{4-(3,4-dichlorophenyl)-piperazin-1-yl}-methyl]-pyrrolidine-2,5-dione]	9 ± 3	0.7	significantly reduced the number of crossings	did not impair the motor coordination	27%	8.42 (7.55–9.39)** mA	61%	10.53 (8.06–13.77)**** mA	669.4 ± 73.04 s	95% and 95.4%	weakly suppressed	32 ± 3	(15) %	12.3%	65.9%	89%	24 ± 2	(1) %	128.8 mg/kg	19 ± 2	antinociceptive activity in the hot plate test (in words) (mice [4]): did not show activity; Latency to status epilepticus (s) ± SEM (mice [6]; dose 30 mg/kg i.p.): 465.8 ± 37.61 s; effect on nocifensive response, first (neurogenic) phase (in words) (mice [9]; 0–5 min after 5 % formalin): did not attenuate the nocifensive response in this phase in a statistically significant manner; Mutagenicity BB7 M.I. (mutagenic index) (V. harveyi BB7 [12]): 1.2
CC1(C)O[C@@H]2[C@@H](CO[C@@]3(COS(N)(=O)=O)OC(C)(C)O[C@@H]23)O1 [Topiramate]																					% inhibition of control specific binding [13]: 7.9%

From PMC4749642, “Evaluation of anticonvulsant and antinociceptive properties of new N-Mannich bases derived from pyrrolidine-2,5-dione and 3-methylpyrrolidine-2,5-dione” (Naunyn-Schmiedeberg's Archives of Pharmacology, 2015)
